Test results published in patent US7361643B2, “Methods for inhibiting angiogenesis” (University of Puerto Rico, priority 2000, dated 2008).

Assays:
[1] = test system: bovine adrenal medullary microvascular endothelial cells; test: Capillary endothelial cell growth and proliferation (cell count in hemacytometer); assay type: cell-based
Procedure: Cells in the amount of 2.0×10^4 were seeded per well in 24-well clusters in 1 ml complete EMEM containing 10% (v/v) serum and allowed to grow for 72 hours. Media were removed and the cells were washed twice with phosphate-buffer saline, pH 7.4 (PBS). Cells were synchronized by incubating for 48 hours in 2 mM hydroxyurea in serum-free EMEM with glutamine (2 mM) and one-third of penicillin-streptomycin used in a regular culture condition, followed by incubating 24 hours in serum-free EMEM, as discussed in CAO et al., “Modified Method of Mammalian Cell Synchronization Improves Yield and Degree of Synchronization”, Exp. Cell Res., 193:405-410 (1991), the disclosure of which is herein incorporated by reference in its entirety.
For proliferation assay, cells were trypsinized and counted in a hemacytometer. Viability of cells was determined by trypan blue (0.4% (v/v)) exclusion. Statistical analysis was carried out by StatView II software (Macintosh). Quantitation of cellular differentiation was carried out by observing under a Nikon AlphaShot inverted microscope, and counting the number of capillary lumen-like structures in five randomly selected fields per sample.
Synchronized cells, as described in Example 1, were cultured at 37° C. in complete EMEM containing fetal bovine serum (1% (v/v), 2% (v/v), or 10% (v/v), or complete EMEM with 2% (v/v) fetal bovine serum containing 1 ng/ml −100 ng/ml of bFGF/FGF-2, or containing 0.5 μg/ml to 5.0 μg/ml tunicamycin (lot number 10922120-07 from Boehringer-Mannheim, Indianapolis, Ind.). In each case, the cellular growth and proliferation was monitored by trypan blue exclusion, by counting the cell number, and by their ability to process through the cell cycle by flow cytometry.
Proliferation and Differentiation of Capillary Endothelial Cells: 2.0×10^4 cells were seeded per well in 24-well clusters in 1 ml complete EMEM containing 10% (v/v) serum and allowed to grow for 72 hours. Media were removed and the cells were washed twice with phosphate-buffer saline, pH 7.4 (PBS). […] Cells were routinely monitored by light microscopy. For proliferation assay, cells were trypsinized and counted in a hemacytometer. Viability of cells was determined by trypan blue (0.4% (v/v)) exclusion. […] Quantitation of cellular differentiation was carried out by observing under a Nikon AlphaShot inverted microscope, and counting the number of capillary lumen-like structures in five randomly selected fields per sample. The results were expressed as percent of its corresponding control after normalization of cell numbers. Analysis of Cell Cycle by Flow Cytometry: Assessment of the cell cycle was determined by propidium iodide staining of fixed cell nuclei followed by flow cytometry in a FacSort (Beckton Dickinson) according to the method of Krishan (1975) as modified by Vindelov (1977), as discussed in KRISHAN, “Rapid Flow Cytometric Analysis of Mammalian Cell Cycle by Propidium Iodide Staining”, J. Cell Biol. 66:188-195 (1975); and VINDELOV, “Flow Cytometric Analysis of Nuclear DNA in Cells from Solid Tumors and Cell Suspensions”, Virchows Arch (B), 24:227-231 (1977), the disclosures of which are herein incorporated by reference in their entireties. […]

[2] = test system: bovine adrenal medullary microvascular endothelial cells; test: Cell cycle and apoptosis by flow cytometry (propidium iodide); assay type: cell-based
Procedure: Regarding flow cytometry, assessment of the cell cycle was determined by propidium iodide staining of fixed cell nuclei followed by flow cytometry in a FacSort (Beckton Dickinson) according to the method of Krishan (1975) as modified by Vindelov (1977), as discussed in KRISHAN, “Rapid Flow Cytofluorometric Analysis of Mammalian Cell Cycle by Propidium Iodide Staining”, J. Cell Biol., 66:188-193 (1975); and VINDELOV, “Flow Cytometric Analysis of Nuclear DNA in Cells from Solid Tumors and Cell Suspensions”, Virchows Arch (B), 24:227-231(1977), the disclosures of which are herein incorporated by reference in their entireties. Briefly, cells were trypsinized, and pelleted by centrifugation at 900 rpm in a bench top centrifuge (Sorvall T6000B). After washing twice with PBS the cell pellet was resuspended in propidium iodide-buffer (PI-buffer; 10 mM Tris-HCl, pH 8.0 containing 10 mM NaCl, 0.7 μM PI, 700 units/liter RNase, and 0.1% (v/v) NP-40), kept in ice for 30 minutes and then fixed with 2% (v/v) paraformaldehyde. After FacSort calibration, 3000 events were counted per sample. Acquisition and analysis of data were carried out by using Cell Quest flow cytometry software (Macintosh-based). Gates: M1=G0/G1, M2=S, M3=G2+M, M4=apoptosis.
Proliferation and Differentiation of Capillary Endothelial Cells: 2.0×10^4 cells were seeded per well in 24-well clusters in 1 ml complete EMEM containing 10% (v/v) serum and allowed to grow for 72 hours. Media were removed and the cells were washed twice with phosphate-buffer saline, pH 7.4 (PBS). Cells were synchronized by incubating for 48 hours in 2 mM hydroxyurea in serum-free EMEM with glutamine (2 mM) and one-third of penicillin-streptomycin used in a regular culture condition, followed by incubating 24 hours in serum-free EMEM, as discussed in CAO et al., “Modified Method of Mammalian Cell Synchronization Improves Yield and Degree of Synchronization”, Exp. Cell Res., 193:405-410 (1991), the disclosure of which is herein incorporated by reference in its entirety. Cells were routinely monitored by light microscopy. For proliferation assay, cells were trypsinized and counted in a hemacytometer. Viability of cells was determined by trypan blue (0.4% (v/v)) exclusion. Statistical analysis was carried out by StatView II software (Macintosh). Quantitation of cellular differentiation was carried out by observing under a Nikon AlphaShot inverted microscope, and counting the number of capillary lumen-like structures in five randomly selected fields per sample. The results were expressed as percent of its corresponding control after normalization of cell numbers. Analysis of Cell Cycle by Flow Cytometry: Assessment of the cell cycle was determined by propidium iodide staining of fixed cell nuclei followed by flow cytometry in a FacSort (Beckton Dickinson) according to the method of Krishan (1975) as modified by Vindelov (1977), as discussed in KRISHAN, “Rapid Flow Cytometric Analysis of Mammalian Cell Cycle by Propidium Iodide Staining”, J. Cell Biol. 66:188-195 (1975); and VINDELOV, “Flow Cytometric Analysis of Nuclear DNA in Cells from Solid Tumors and Cell Suspensions”, Virchows Arch (B), 24:227-231 (1977), the disclosures of which are herein incorporated by reference in their entireties. Briefly, cells were trypsinized, and pelleted by centrifugation at 900 rpm in a bench top centrifuge (Sorvall T6000B). After washing twice with PBS the cell pellet was resuspended in propidium iodide-buffer (PI-buffer; 10 mM Tris-HCl, pH 8.0 containing 10 mM NaCl, 0.7 μM PI, 700 units/liter RNase, and 0.1% (v/v) NP-40), kept in ice for 30 minutes and then fixed with 2% (v/v) paraformaldehyde. After FacSort calibration, 3000 events were counted per sample. Acquisition and analysis of data were carried out by using Cell Quest flow cytometry software (Macintosh-based). Gates: M1 G0/G1, M2=S, M3=G2+M, M4=apoptosis.

protein N-glycosylation = settings: pre-treatment of cells with β-antagonist; cited from earlier work
[3] = test system: capillary endothelial cells; settings: BANERJEE et al. (1993); cited from earlier work
[4] = cycloheximide replacing tunicamycin (data not shown)

C[C@@H]1C[C@@H]([C@H](O)CC2CC(=O)NC(=O)C2)C(=O)[C@@H](C)C1 [cycloheximide]
cell proliferation [1, 4]: inhibited the cell proliferation in a time- and dose-dependent manner
induction of apoptosis [2, 4]: did not induce apoptosis

CC(C)NCC(O)COc1ccc(CC(N)=O)cc1 (stereo not drawn) [atenolol]
protein N-glycosylation (protein N-glycosylation): reduced protein N-glycosylation substantially

Cc1ccc(OCC(O)C(C)NC(C)C)c2c1CCC2 (stereo not drawn) [ICI-118,551]
protein N-glycosylation (protein N-glycosylation): reduced protein N-glycosylation substantially

Amphomycin
endothelial cell proliferation [3]: inhibits endothelial cell proliferation in a dose-dependent manner

bFGF/FGF-2: basic fibroblast growth factor
endothelial cell proliferation ([1]; bFGF/FGF-2 10 ng/ml-100 ng/ml in 2% serum): stimulated the endothelial cell proliferation over the controls
reduction of the lag phase ([1]; bFGF/FGF-2 at stimulatory concentrations): ~24 h
time to complete the cell cycle ([2]; bFGF/FGF-2 10 ng/ml-100 ng/ml (68 hours in 2% serum control)): 56 h
shortening of the G1 phase ([2]; bFGF/FGF-2 10 ng/ml-100 ng/ml versus 2% serum): 12 h
